Laboratory results taken from publication PMC8274517, “Diaryl azo derivatives as anti-diabetic and antimicrobial agents: synthesis, in vitro, kinetic and docking studies” (Journal of Enzyme Inhibition and Medicinal Chemistry, 2021).
Values after ≈ are worked out from the molar mass of the structure shown. “Also recorded” adds a separate entry of the source.

Tests used:
α-glucosidase [1] = assay: In vitro α-glucosidase inhibition assay (pNPG substrate); type: biochemical, Saccharomyces Cerevisiae; conditions: for IC50: means ± SEM of triplicate
Experimental: The α-glucosidase inhibition assay was performed as described previously. In summary, the stock solution of the enzyme from Saccharomyces Cerevisiae (0.2 U/mL) was prepared in 0.05 M sodium phosphate buffer pH 6.8. […] After incubation, 10 µL of the substrate, p-nitrophenyl α-D-glucopyranoside (pNPG, 5 mM solution in 0.05 M phosphate buffer) was added to the aboveprepared mixture and incubated again under the same experimental conditions. The reaction was stopped with the addition of 0.1 M Na2CO3 and OD405 was taken by a 96-well ELISA reader. The experiment was performed in triplicate.

α-glucosidase [2] = assay: Kinetic analysis and inhibition mechanism of α-glucosidase inhibition; type: biochemical, Saccharomyces Cerevisiae
Experimental: The potential inhibitor with concentrations 0.00, 0.062, 0.125, 0.25, 0.5 mM was selected for kinetic studies. The substrate (pNPG) concentration was optimised from 5 to 40 mM in all kinetic studies. Pre-incubation and measurement time was the same as discussed in α-glucosidase inhibition assay. The assay was continuously monitored at 405 nm for 5 min at 30 s intervals in the microplate reader after the addition of the enzyme. The inhibition type on the enzyme was assayed by Lineweaver–Burk plots of the inverse of velocities (1/V) versus the inverse of substrate concentration 1/[S] mM^−1, and the inhibition constant Ki was determined by two ways (Dixon plot of 1/V versus inhibitor concentrations) as well as secondary replot of slope versus inhibitor concentrations from Lineweaver–Burk plot.
The plot of the remaining enzyme activity versus the concentrations of the enzyme at different inhibitor concentrations (0.00, 0.062, 0.125, 0.25 and 0.5 mM) was calculated.

E. coli = assay: Antibacterial activity, minimum inhibitory concentration; type: cell-based; set-up: key: R: resistant; S: sensitive
Experimental: (§1) The prepared azo derivatives were screened for their antibacterial activity against six bacterial strains obtained from hospital isolates i.e. gram positive (S. aureus, S. aureus (DR)) and gram-negative (E. coli, P. aeruginosa, P. aeruginosa (DR), P. vulgaris). All the strains were confirmed by biochemical identification and drug susceptibility methods. The antibacterial evaluation was done by agar disc diffusion method[39]^,[40] and MIC was determined. In summary, a 48-h old inoculum having ∼0.48 OD600, of the above-mentioned bacterial strains was spread on the solidified trypticase soy agar media and Whatman no. 1 filter paper discs (5 mm in diameter) soaked with the title compounds (10 µL/disc of 10 mg/mL) were placed on the plates. Ampicillin and moxifloxacin were used as positive controls and DMSO as negative control respectively.

P. aeruginosa (DR) [3] = assay: as above; type: cell-based; set-up: key: R: resistant; S: sensitive
Experimental: as §1

P. aeruginosa (DS) [4] = assay: as above; type: cell-based; set-up: key: R: resistant; S: sensitive
Experimental: as §1

P. vulgaris = assay: as above; type: cell-based; set-up: key: R: resistant; S: sensitive
Experimental: as §1

S. aureus (DR) = assay: as above; type: cell-based; set-up: key: R: resistant; S: sensitive
Experimental: as §1

S. aureus (DS) [5] = assay: as above; type: cell-based; set-up: key: R: resistant; S: sensitive
Experimental: as §1

S. aureus (DS) [6] = assay: Antibiofilm assay (crystal violet); type: cell-based; conditions: 0.5 mg/mL
Experimental: (§2) The antibiofilm activity of the synthesised azo derivatives was assessed by microtitre plate-based crystal violet method[44] against respective bacterial strains i.e. gram-positive (S. aureus, S. aureus (DR)) and gram-negative (P. aeruginosa, P. aeruginosa (DR)). In brief, 10 µL bacterial suspension, 100 µL trypticase soy broth and 10 µL (10 mg/mL) of test compounds were added in the wells in duplicates and incubated at 37 °C overnight. Ampicillin and moxifloxacin were used as positive controls. After the aspiration of planktonic cells, the biofilm was fixed with 99% methanol. The wells were then washed with 0.1 M sterile PBS (pH = 6.9) thrice and air-dried. Then, 200 µL of crystal violet solution (2%) was added to all wells. After 15 min, the excess of the crystal violet dye was removed and the wells were washed again with PBS. Then, the cell-bound crystal violet was dissolved in 33% acetic acid. The biofilm growth was quantified in terms of OD575 nm using an ELISA plate reader and biofilm hydrolysis was calculated by % inhibition formula.

[7] = tested on: screened pathogens (S. aureus, P. aeruginosa, E. coli and P. vulgaris); assay: Antibacterial activity, average MIC over screened pathogens; type: cell-based
Experimental: as §1, with “All the strains were confirmed by biochemical identification and drug susceptibility methods.” left out, “plates.” for “plates. Ampicillin and moxifloxacin were used as positive controls and DMSO as negative control respectively.”

P. aeruginosa (DR) [8] = assay: Antibiofilm assay (crystal violet); type: cell-based; conditions: 0.5 mg/mL
Experimental: as §2

P. aeruginosa (DS) [9] = assay: Antibiofilm assay (crystal violet); type: cell-based; conditions: 0.5 mg/mL
Experimental: as §2

| Compound | % Inhibition (α-glucosidase [1]; 15.62 µg/mL) [%] | % Inhibition (α-glucosidase [1]; 31.2 µg/mL) [%] | % Inhibition (α-glucosidase [1]; 125 µg/mL) [%] | % Inhibition (α-glucosidase [1]; 250 µg/mL) [%] | IC50 (α-glucosidase [1]) [µg/mL] | Minimum inhibitory concentration: sensitive/resistant (E. coli; 125 µg/200 µL) | Minimum inhibitory concentration: sensitive/resistant (E. coli; 250 µg/200 µL) | Minimum inhibitory concentration: sensitive/resistant (P. aeruginosa (DR) [3]; 125 µg/200 µL) | Minimum inhibitory concentration: sensitive/resistant (P. aeruginosa (DR) [3]; 250 µg/200 µL) | Minimum inhibitory concentration: sensitive/resistant (P. aeruginosa (DS) [4]; 125 µg/200 µL) | Minimum inhibitory concentration: sensitive/resistant (P. aeruginosa (DS) [4]; 250 µg/200 µL) | Minimum inhibitory concentration: sensitive/resistant (P. vulgaris; 125 µg/200 µL) | Minimum inhibitory concentration: sensitive/resistant (P. vulgaris; 250 µg/200 µL) | Minimum inhibitory concentration: sensitive/resistant (S. aureus (DR); 125 µg/200 µL) | Minimum inhibitory concentration: sensitive/resistant (S. aureus (DR); 250 µg/200 µL) | Minimum inhibitory concentration: sensitive/resistant (S. aureus (DS) [5]; 125 µg/200 µL) | Minimum inhibitory concentration: sensitive/resistant (S. aureus (DS) [5]; 250 µg/200 µL) | biofilm inhibition (S. aureus (DS) [6]) | melting point [°C] | biofilm inhibition (P. aeruginosa (DS) [9]) | further results |
| --- | --- | --- | --- | --- | --- | --- | --- | --- | --- | --- | --- | --- | --- | --- | --- | --- | --- | --- | --- | --- | --- |
| O=[N+]([O-])c1ccc(/N=N/c2ccc(O)cc2O)cc1 [TR-1, (E)-4-((4-nitrophenyl)diazenyl)benzene-1,3-diol] | 49 | 68 | 88 | 95 | 15.70 ± 1.3 (≈ 60.6 µM) | S | S | S | S | R | R | S | S | R | R | S | S | greater than 70% |  |  | Ki (α-glucosidase [2]; EI dissociation constant, Dixon plot and secondary replot): 220 µM; Inhibition type (α-glucosidase [2]; Lineweaver–Burk plot): Non-competitive; Km (α-glucosidase [2]; inhibitor dose 0.062 mM): 20 mM; Vmax (α-glucosidase [2]; inhibitor dose 0.062 mM): 0.166 ΔA/S; Km (α-glucosidase [2]; inhibitor dose 0.125 mM): 20 mM; Vmax (α-glucosidase [2]; inhibitor dose 0.125 mM): 0.125 ΔA/S; Km (α-glucosidase [2]; inhibitor dose 0.25 mM): 20 mM; Vmax (α-glucosidase [2]; inhibitor dose 0.25 mM): 0.090 ΔA/S; Km (α-glucosidase [2]; inhibitor dose 0.50 mM): 20 mM; Vmax (α-glucosidase [2]; inhibitor dose 0.50 mM): 0.071 ΔA/S; Inhibition (reversibility) (α-glucosidase [2]; remaining enzyme activity versus enzyme concentration): reversibly; also recorded: reversible; MIC (average value) [7]: 125 µg/200 µL |
| O=[N+]([O-])c1ccc(/N=N/c2c(O)ccc3ccccc23)cc1 [TR-3, (E)-1-((4-nitrophenyl)diazenyl)naphthalen-2-ol] | 12 | 25 | 54 |  | 116.9 ± 8.6 (≈ 399 µM) | R | R | R | R | R | S | R | R | R | R | R | R | greater than 70% | 245 to 252 |  |  |
| Oc1ccc(N=Nc2cccnc2Cl)c(O)c1 [TR-7, 4-((2-chloropyridin-3-yl)diazenyl)benzene-1,3-diol] | 34 | 52 | 77 | 87 | 29.7 ± 2.8 (≈ 119 µM) | R | R | S | S | R | R | R | R | R | R | R | R |  | 187 to 189 | not found active | inhibition at 500 µg/mL (P. aeruginosa (DR) [8]; Pseudomonas aeruginosa, read-out: biofilm inhibition (anti-biofilm potency)): 55% |
| (E)-1-(p-tolyldiazenyl)naphthalen-2-ol [TR-5] | 14 | 22 | 49 | 56 | 153.4 ± 11.5 | S | S | S | S | R | S | R | R | S | S | R | R |  |  |  | biofilm inhibition (anti-biofilm potency) (P. aeruginosa (DR) [8]): 80% |
| penicillin [reference compound] |  |  |  |  |  |  |  |  |  |  |  |  |  |  |  |  |  | 65% |  | 60% |  |
